Several values for one entry are separate records, joined by “and”; a condition that tells them apart may be missing. Identical values can stand only once.
Assay: xn = mol fraction of the nth substance listed
Conditions: 298.15 K, 92.3 kPa, Liquid; for viscosity: Concentric cylinders viscometry; for speed of sound: Frequency=3 MHz, Single path-length method; for mass density: Vibrating tube method

CCO [ethanol] + O
Conditions | mass density | speed of sound [m/s] | viscosity [mPa·s]
x1 = 0.0024 | 995.871 kg/m3 | 1501.5 | –
x1 = 0.0201 | 988.31 kg/m3 | – | 1.098
x1 = 0.0202 | 988.159 kg/m3 | 1532.7 | –
x1 = 0.0295 | 984.669 kg/m3 | 1548.2 | –
x1 = 0.0366 | 982.196 kg/m3 | 1559.6 | –
x1 = 0.0408 | 980.85 kg/m3 | – | 1.336
x1 = 0.0497 | 977.99 kg/m3 | – | 1.432
x1 = 0.0513 | 977.287 kg/m3 | 1581.3 | –
x1 = 0.06 | 974.31 kg/m3 and 974.729 kg/m3 | 1592.1 | 1.551
x1 = 0.0707 | 971.631 kg/m3 | 1603.2 | –
x1 = 0.0796 | 969.17 kg/m3 | – | 1.748
x1 = 0.0801 | 968.969 kg/m3 | 1610.7 | –
x1 = 0.0904 | 966.039 kg/m3 | 1616.4 | –
x1 = 0.0997 | 963.419 kg/m3 | 1619 | –
x1 = 0.1004 | 961.4 kg/m3 | – | 1.947
x1 = 0.1294 | 954.963 kg/m3 | 1613.3 | –
x1 = 0.1497 | 948.951 kg/m3 | 1600.1 | –
x1 = 0.1499 | 948.9 kg/m3 | – | 2.242
x1 = 0.1984 | 931.84 kg/m3 | – | 2.371
x1 = 0.2008 | 933.41 kg/m3 | 1553.7 | –
x1 = 0.2499 | 918.95 kg/m3 | – | 2.429
x1 = 0.2503 | 918.708 kg/m3 | 1507 | –
x1 = 0.2998 | 904.858 kg/m3 | 1464.5 | –
x1 = 0.3016 | 904.86 kg/m3 | – | 2.339
x1 = 0.3499 | 892.28 kg/m3 | – | 2.263
x1 = 0.3507 | 891.711 kg/m3 | 1426.2 | –
x1 = 0.399 | 880.34 kg/m3 | – | 2.17
x1 = 0.3992 | 880.239 kg/m3 | 1394.2 | –
x1 = 0.4495 | 869.34 kg/m3 | – | 2.066
x1 = 0.4514 | 869.012 kg/m3 | 1363.9 | –
x1 = 0.4989 | 860.04 kg/m3 | – | 1.956
x1 = 0.5002 | 858.963 kg/m3 | 1337.9 | –
x1 = 0.5494 | 849.801 kg/m3 | 1314.5 | –
x1 = 0.5495 | 850.72 kg/m3 | – | 1.88
x1 = 0.6018 | 840.665 kg/m3 | 1291.5 | –
x1 = 0.6067 | 840.19 kg/m3 | – | 1.744
x1 = 0.6503 | 832.95 kg/m3 and 832.839 kg/m3 | 1271.8 | 1.659
x1 = 0.6956 | 826.05 kg/m3 | – | 1.572
x1 = 0.7006 | 825.07 kg/m3 | 1252.3 | –
x1 = 0.7355 | 819.907 kg/m3 | 1239.1 | –
x1 = 0.75 | 818.03 kg/m3 | – | 1.483
x1 = 0.7843 | 813.49 kg/m3 | – | 1.43
x1 = 0.7965 | 811.475 kg/m3 | 1217 | –
x1 = 0.8433 | 805.219 kg/m3 | 1200.2 | –
x1 = 0.8475 | 805.63 kg/m3 | – | 1.342
x1 = 0.8864 | 799.93 kg/m3 | – | 1.271
x1 = 0.892 | 798.808 kg/m3 | 1182.5 | –
x1 = 0.9093 | 796.615 kg/m3 | 1176.3 | –
x1 = 0.9207 | 795.193 kg/m3 | 1172.3 | –
x1 = 0.929 | 794.19 kg/m3 | – | 1.204
x1 = 0.9307 | 793.91 kg/m3 | 1168.6 | –
x1 = 0.9398 | 792.821 kg/m3 | 1165.4 | –
x1 = 0.9483 | 791.735 kg/m3 | 1162.3 | –
x1 = 0.9603 | 790.291 kg/m3 | 1158.1 | –
x1 = 0.9702 | 789.073 kg/m3 | 1154.5 | –
x1 = 0.9801 | 787.741 kg/m3 | 1151.3 | –
x1 = 0.9895 | 786.779 kg/m3 | 1147.8 | –
x1 = 1 | 785.26 kg/m3 | 1143.5 | 1.091
